Structures can show the parent of a compound that is named as a salt.
Experiments:
human FAAH = target: T1, human FAAH (Homo sapiens, UniProt O00519); test: Assay Method 1: FAAH assay, hydrolysis of 3H-anandamide by homogenate of SK-N-MC cells transfected with human FAAH; type: biochemical; conditions: human FAAH; T84 or transfected SK-N-MC cell homogenate; 3H-AEA tracer 80 nM; rt 1 h; pH 9; read-out: Assay 1 IC50
T1 construct: expressed in transfected cells
T1 sequence (O00519 1-579): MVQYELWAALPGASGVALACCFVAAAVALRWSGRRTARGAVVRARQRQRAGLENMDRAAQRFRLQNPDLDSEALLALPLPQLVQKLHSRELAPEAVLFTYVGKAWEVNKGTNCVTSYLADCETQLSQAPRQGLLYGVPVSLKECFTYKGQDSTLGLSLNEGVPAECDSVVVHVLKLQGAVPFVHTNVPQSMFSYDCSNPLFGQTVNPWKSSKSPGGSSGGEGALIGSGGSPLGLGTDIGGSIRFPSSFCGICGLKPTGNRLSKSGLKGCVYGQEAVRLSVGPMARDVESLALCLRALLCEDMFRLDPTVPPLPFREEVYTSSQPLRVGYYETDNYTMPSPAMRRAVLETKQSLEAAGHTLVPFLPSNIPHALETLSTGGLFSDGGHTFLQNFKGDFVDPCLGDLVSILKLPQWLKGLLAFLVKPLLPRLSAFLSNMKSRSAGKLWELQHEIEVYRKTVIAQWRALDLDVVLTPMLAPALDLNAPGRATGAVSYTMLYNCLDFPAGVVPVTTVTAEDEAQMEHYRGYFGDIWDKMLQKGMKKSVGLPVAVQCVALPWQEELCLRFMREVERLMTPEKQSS
How it was run: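 Homogenate of SK-N-MC cells stably expressing human FAAH (G418-selected clones) incubated with compound and 80 nM [1-3H-ethanolamine]anandamide for 1 h at rt. Released 3H-ethanolamine separated from substrate by activated-charcoal filtration, then counted by scintillation.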

rat FAAH = target: T2, rat FAAH (Rattus norvegicus, UniProt P97612); test: Assay Method 2: FAAH assay, hydrolysis of 3H-anandamide by homogenate of SK-N-MC cells transfected with rat FAAH; type: biochemical; conditions: T84 or transfected SK-N-MC cell homogenate, 3H-AEA tracer 80 nM, rt 1 h, pH 9
T2 construct: expressed in transfected cells
T2 sequence (P97612 1-579): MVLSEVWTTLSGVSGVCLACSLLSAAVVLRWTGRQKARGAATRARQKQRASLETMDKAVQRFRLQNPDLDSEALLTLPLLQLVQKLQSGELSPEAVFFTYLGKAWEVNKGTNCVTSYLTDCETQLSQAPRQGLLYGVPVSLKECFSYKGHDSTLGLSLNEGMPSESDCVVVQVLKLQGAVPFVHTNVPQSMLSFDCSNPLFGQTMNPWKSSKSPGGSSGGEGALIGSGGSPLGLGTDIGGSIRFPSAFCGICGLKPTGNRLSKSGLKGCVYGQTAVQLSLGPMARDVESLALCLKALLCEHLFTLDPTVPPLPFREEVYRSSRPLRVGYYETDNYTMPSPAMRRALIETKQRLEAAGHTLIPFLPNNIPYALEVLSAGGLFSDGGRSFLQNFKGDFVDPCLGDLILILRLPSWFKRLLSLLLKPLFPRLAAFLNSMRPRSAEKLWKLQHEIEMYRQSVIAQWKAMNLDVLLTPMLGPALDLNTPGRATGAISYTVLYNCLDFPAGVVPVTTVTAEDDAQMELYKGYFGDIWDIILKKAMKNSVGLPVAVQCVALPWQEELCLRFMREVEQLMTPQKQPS
How it was run: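 Rat FAAH activity from homogenate of G418-selected, electroporated SK-N-MC clones was measured as release of radiolabelled ethanolamine from 3H-anandamide. After 1 h at rt, charcoal filtration retained substrate, and scintillation counting of the flow-through gave the read-out.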

| IC50 (human FAAH) [nM] | IC50 (rat FAAH) [nM] | Structure (SMILES) |
| --- | --- | --- |
| 175 | 277 | O=C(CCCC1CCN(Cc2cnc3ccccc3n2)CC1)c1ncco1 [Example 117, 1-Oxazol-2-yl-4-(1-quinoxalin-2-ylmethyl-piperidin-4-yl)-butan-1-one] |
| 86 | 1000 | O=C(CCCC1CCN(Cc2ccc3c(c2)OCO3)CC1)c1ncco1 [Example 14, 4-(1-Benzo[1,3]dioxol-5-ylmethyl-Piperidin-4-yl)-1-oxazol-2-yl-butan-1-one] |
| 0.9 | 2 | O=C(CCCC1CCN(Cc2cccc(-c3ccccc3)c2)CC1)c1ncco1 [Example 72, 4-(1-Biphenyl-3-ylmethyl-piperidin-4-yl)-1-oxazol-2-yl-butan-1-one] |
| 315 | 900 | O=C(CCCC1CCN(Cc2ccccc2)CC1)c1ncco1 [Example 3, 4-(1-Benzyl-piperidin-4-yl)-1-oxazol-2-yl-butan-1-one] |
| 50 | 118 | CC(C)(C)COC(=O)N1CCC(CCCC(=O)c2ncco2)CC1 [Example 67, 4-(4-Oxazol-2-yl-4-oxo-butyl)-piperidine-1-carboxylic acid 2,2-dimethyl-propyl ester] |
| 12 | 23 | O=C(CCCC1CCN(Cc2cc3ccccc3nc2Cl)CC1)c1ncco1 [Example 97, 4-[1-(2-Chloro-quinolin-3-ylmethyl)-piperidin-4-yl]-1-oxazol-2-yl-butan-1-one] |
| 4 | 2.4 | O=C(CCCC1CCN(Cc2ccc(Oc3ccccc3)cc2)CC1)c1ncco1 [Example 15, 1-Oxazol-2-yl-4-[1-(4-phenoxy-benzyl)-piperidin-4-yl]-butan-1-one] |
| 370 | 7000 | O=C(CCCC1CCN(Cc2ccc3cccnc3n2)CC1)c1ncco1 [Example 116, 4-(1-[1,8]Naphthyridin-2-ylmethyl-piperidin-4-yl)-1-oxazol-2-yl-butan-1-one] |
| 26 | 14 | Cc1ccc(S(=O)(=O)N2CCC(CCCC(=O)c3ncc(C(=O)O)o3)CC2)cc1 [Example 146] |
| 313 | 1000 | O=C(CCCC1CCN(Cc2cccc(Br)n2)CC1)c1ncco1 [Example 77, 4-[1-(6-Bromo-pyridin-2-ylmethyl)-piperidin-4-yl]-1-oxazol-2-yl-butan-1-one] |
| 14 | 174 | N#Cc1cccc(-c2ccc(CN3CCC(CCCC(=O)c4ncco4)CC3)cn2)c1 [Example 112, 3-{5-[4-(4-Oxazol-2-yl-4-oxo-butyl)-piperidin-1-ylmethyl]-pyridin-2-yl}-benzonitrile] |
| 100 | 100 | Cc1ccc(CC(=O)N2CCC(CCCC(=O)c3ncco3)CC2)cc1 [Example 38, 1-Oxazol-2-yl-4-[1-(2-p-tolyl-acetyl)-piperidin-4-yl]-butan-1-one] |
| 30 | 11 | COc1ccc2nc(Cl)c(CN3CCC(CCCC(=O)c4ncco4)CC3)cc2c1 [Example 100, 4-[1-(2-Chloro-6-methoxy-quinolin-3-ylmethyl)-piperidin-4-yl]-1-oxazol-2-yl-butan-1-one] |
| 36 | 308 | COc1cccc(CN2CCC(CCCC(=O)c3ncco3)CC2)c1 [Example 17, 4-[1-(3-Methoxy-benzyl)-piperidin-4-yl]-1-oxazol-2-yl-butan-1-one] |
| 905 | 95 | O=C(CCCC1CCN(S(=O)(=O)c2ccc(F)cc2)CC1)c1ncco1 [Example 55, 4-[1-(4-Fluoro-benzenesulfonyl)-piperidin-4-yl]-1-oxazol-2-yl-butan-1-one] |
| 9 | 2 | O=C(O)c1cccc(-c2cnc(C(=O)CCCC3CCN(Cc4cccc(-c5ccccc5)c4)CC3)o2)n1 [Example 149, 6-{2-[4-(1-Biphenyl-3-ylmethyl-piperidin-4-yl)-butyryl]-oxazol-5-yl}-pyridine-2-carboxylic acid trifluoroacetic acid salt] |
| 12 | 3 | O=C(CCCC1CCN(C(=O)CCc2ccc(Cl)cc2)CC1)c1ncco1 [Example 46, 4-{1-[3-(4-Chloro-phenyl)-propionyl]-piperidin-4-yl}-1-oxazol-2-yl-butan-1-one] |
| 7 | 49 | CCc1ccc(CN2CCC(CCCC(=O)c3ncco3)CC2)cc1 [Example 71, 4-[1-(4-Ethyl-benzyl)-piperidin-4-yl]-1-oxazol-2-yl-butan-1-one] |
| 4 | 34 | O=C(CCCC1CCN(S(=O)(=O)c2ccc(Cl)cc2)CC1)c1ncco1 [Example 60, 4-[1-(4-Chloro-benzenesulfonyl)-piperidin-4-yl]-1-oxazol-2-yl-butan-1-one] |
| 1040 | 13 | Cc1ccc(S(=O)(=O)N2CCC(CCCC(=O)c3ncco3)CC2)cc1 [Example 52, 1-Oxazol-2-yl-4-[1-(toluene-4-sulfonyl)-piperidin-4-yl]-butan-1-one] |
| 30 | 450 | O=C(CCCC1CCN(Cc2cc(F)cc(F)c2F)CC1)c1ncco1 [Example 124, 1-Oxazol-2-yl-4-[1-(2,3,5-trifluoro-benzyl)-piperidin-4-yl]-butan-1-one] |
| 0.4 | 7 | Cc1ccc2nc(Cl)c(CN3CCC(CCCC(=O)c4ncco4)CC3)cc2c1 [Example 98, 4-[1-(2-Chloro-6-methyl-quinolin-3-ylmethyl)-piperidin-4-yl]-1-oxazol-2-yl-butan-1-one] |
| 75 | 17 | CC(C)c1ccc(CN2CCC(CCCC(=O)c3ncc(C(=O)O)o3)CC2)cc1 [Example 144, 2-{4-[1-(4-Isopropyl-benzyl)-piperidin-4-yl]-butyryl}-oxazole-5-carboxylic acid trifluoroacetic acid salt] |
| 2 | 37 | COc1ccc(S(=O)(=O)N2CCC(CCCC(=O)c3ncco3)CC2)cc1 [Example 61, 4-[1-(4-Methoxy-benzenesulfonyl)-piperidin-4-yl]-1-oxazol-2-yl-butan-1-one] |
| 430 | 800 | O=C(CCCC1CCN(C(=O)Cc2ccccc2Cl)CC1)c1ncco1 [Example 42, 4-{1-[2-(2-Chloro-Phenyl)-acetyl]-piperidin-4-yl}-1-oxazol-2-yl-butan-1-one] |

| Structure (SMILES) | IC50 (human FAAH) [nM] | IC50 (rat FAAH) [nM] |
| --- | --- | --- |
| Cc1cccc(CN2CCC(CCCC(=O)c3ncco3)CC2)c1 [Example 19, 4-[1-(3-Methyl-benzyl)-piperidin-4-yl]-1-oxazol-2-yl-butan-1-one] | 90 | 305 |
| O=C(CCCC1CCN(Cc2cccc(Oc3ccccc3)c2)CC1)c1ncco1 [Example 2, 1-Oxazol-2-yl-4-[1-(3-phenoxy-benzyl)-piperidin-4-yl]-butan-1-one] | 0.4 | 4.7 |
| CC(C)(C)CC(=O)N1CCC(CCCC(=O)c2ncco2)CC1 [Example 25, 3,3-Dimethyl-1-[4-(4-oxazol-2-yl-4-oxo-butyl)-piperidin-1-yl]-butan-1-one] | 90 | 320 |
| CC(C)OC(=O)N1CCC(CCCC(=O)c2ncco2)CC1 [Example 69, 4-(4-Oxazol-2-yl-4-oxo-butyl)-piperidine-1-carboxylic acid isopropyl ester] | 4 | 9 |
| CC(C)Oc1cccc(CN2CCC(CCCC(=O)c3ncco3)CC2)c1 [Example 135, 4-[1-(3-Isopropoxy-benzyl)-piperidin-4-yl]-1-oxazol-2-yl-butan-1-one] | 5 | 9 |

Reference: US20090111778A1, “2-Keto-Oxazoles as Modulators of Fatty Acid Amide Hydrolase” (priority 2005, published 2009)
